From patent US20230416168A1 (EUROCHEM ANTWERPEN, priority 2020, published 2023)
pIC50: −log10 of the molar value.

Columns and labels:
Merelbeke soil = assay: In soil nitrification inhibition assay, Merelbeke soil; settings: for inhibition of ammonium consumption in soil, in words: 50 μM, one week of treatment; for inhibition at 50 µM: soil, 168 h, 7 days, read-out: % Nitrification inhibition in soil (7 days of incubation, Merelbeke soil)
Procedure: Top layer (0 to 10 cm) soil samples were collected from different fields in Belgium (Merelbeke and Moorslede). Vegetation on the field trial was removed and samples were taken from different plots. All soil samples were mixed and sieved (mesh size 2.8 mm) to filter large debris and homogenize soil. The soil was stored at 5° C. in plastic containers covered with Saran foil to prevent changes in microbial community composition and to maintain the original soil water content. Soil water content was determined by drying 20 g soil for 48 h in a 60° C. oven and measuring weight before and after drying. Based on the soil water content (±20%), compound solutions were prepared so that addition of 200 μl compound and 200 μl NH4Cl solution would result in a final compound concentration of 50 μM and a final NH4^+ concentration of 10 mM. Per treatment, 5 small pots were filled with 20 g soil. Next, the soil was treated first with the respective compound solution and then with the NH4Cl solution. Per tray, positive (50 μM DMP) and negative controls (DMSO) were included. Pots were incubated at 21° C. (6 a.m. to 10 p.m. light) for 7 days. Demineralized water was added to the soil every 2 to 3 days to a soil weight of 20 g. In the end, each sample of 20 g soil was dissolved in 100 ml 1M KCl and shaken for 1 hour, followed by filtration through Whatmann® paper. The filtrate was used to measure pH, NH4^+ and NO3− concentrations. The nitrification inhibitors were applied in a nitrification inhibition assay using agricultural soil. In practice, ammonium with or without the new nitrification inhibitors was added to soil from a field in Merelbeke (Belgium). The ammonium level was measured at the start of the experiment and at the end of the experiment, after one week of incubation. A nitrification inhibition percentage was calculated by comparing the reduction in ammonium level with the nitrification inhibitor to the reduction in ammonium without the nitrification inhibitor. Ammonium was added to soil with a high nitrification activity and treated with the nitrification inhibitors (final concentration of 50 μM). […] This validates that the new nitrification inhibitors are effectively inhibiting ammonia oxidation by soil communities.

Nitrosomonas europaea = assay: Nitrification inhibition assay with Nitrosomonas europaea (nitrite level after 24 h); type: cell-based; settings: for pIC50 / activity at 100 µM: Nitrosomonas europaea; for pIC50: 8-point dose response, 2 to 100 μM, read-out: IC50; for activity at 100 µM: tested concentration 100 μM, 24 h, normalized to DMSO (100%) and 100 μM DMP (0%), read-out: Nitrification (%) at tested concentration (0 = maximum activity)
Procedure, shortened: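 Fivefold-concentrated N. europaea culture with ammonium incubated 24 h at 28 °C, shaken, with compound (single-point screen at 50 μM final; dose–response 2–100 μM, 8 points, 1.75-fold steps). Nitrite measured by Griess reagent at 540 nm, normalised per plate to 1% DMSO and 100 μM DMP controls; IC50 from logistic fit.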

| Compound | inhibition of ammonium consumption in soil, in words (Merelbeke soil) | inhibition at 50 µM (Merelbeke soil) | nitrification inhibition, in words (Nitrosomonas europaea) | pIC50 (Nitrosomonas europaea) | activity at 100 µM (Nitrosomonas europaea) | Average nitrification [%] in Nitrosomonas europaea (Nitrosomonas europaea; 2 μM) | Average nitrification [%] in Nitrosomonas europaea (Nitrosomonas europaea; 3.5 μM) | Average nitrification [%] in Nitrosomonas europaea (Nitrosomonas europaea; 6 μM) | Average nitrification [%] in Nitrosomonas europaea (Nitrosomonas europaea; 11 μM) | Average nitrification [%] in Nitrosomonas europaea (Nitrosomonas europaea; 19 μM) | Average nitrification [%] in Nitrosomonas europaea (Nitrosomonas europaea; 33 μM) | Average nitrification [%] in Nitrosomonas europaea (Nitrosomonas europaea; 57 μM) | Average nitrification [%] in Nitrosomonas europaea (Nitrosomonas europaea; 100 μM) |
| --- | --- | --- | --- | --- | --- | --- | --- | --- | --- | --- | --- | --- | --- |
| CN(Cc1nc2ccccc2s1)CN1CCOC1=S [Example 5, 3-[[1,3-benzothiazol-2-ylmethyl(methyl)amino]methyl]-1,3-oxazolidine-2-thione] | significant inhibition | 14% | strong nitrification inhibition | 4.96 | 0% | – | – | – | – | – | – | – | – |
| CSc1nccs1 [Example 25, 2-(methylsulfanyI)-1,3-thiazole] | – | – | – | 4.92 | 2% | 85% | 76% | 73% | 58% | 50% | 32% | 20% | 2% |
| S=c1[nH]ccs1 [Example 24, 3H-1,3-thiazole-2-thione] | – | – | nearly completely inhibits nitrification | 4.89 | 1% | 79% | 78% | 76% | 74% | 60% | 43% | 20% | 1% |
| S=C1NCCO1 [Example 7] | – | – | – | > 5.22 | 0% | – | – | – | – | – | – | – | – |
| CN(Cc1c(Cl)nc2sccn12)CN1CCSC1=S [Example 1, 3-[[(6-chloroimidazo[2,1-b][1,3]thiazol-5-yl)methyl-methylamino]methyl]-1,3-thiazolidine-2-thione] | strongly inhibited the ammonium consumption | 60% | strongly inhibited nitrification | > 5.70 | 0% | – | – | – | – | – | – | – | – |
